Experimental data published in US12350290B2, “Compositions and methods that promote hypoxia or the hypoxia response for treatment and prevention of mitochondrial dysfunction and oxidative stress disorders” (The General Hospital Corporation, priority 2015, dated 2025).

Assays:
multiple cell types = test: Oxygen consumption as proxy for aerobic respiration; type: cell-based; details: FG-4592 treatment
Excerpt: (§1) The shift in energy metabolism was confirmed by measuring lactic acid as the end-product of anaerobic glycolysis and oxygen consumption as a proxy for aerobic respiration. […] Thus cells are able to shift towards glycolysis using endogenous defense mechanisms; however, a transcriptional response is needed to increase the glycolytic flux enough to maintain cellular growth rates. Furthermore, basal oxygen consumption was decreased with FG-4592 treatment. This may be protective in the setting of mitochondrial dysfunction, as it may limit the amount of ROS produced by impaired electron transport. Genetic and small molecule activation of the HIF pathway enabled cells to cope with mitochondrial dysfunction at multiple steps of the electron transport chain and in multiple cell types. The small molecule, FG-4592, normoxically stabilized HIF and thereby increased glycolysis beyond allosteric mechanisms. Furthermore, it bypassed the paradox between mitochondrial dysfunction and HIF stabilization during hypoxia.

[1] = test system: HT-29s, HEK 293s and K562s; test: Rescue of growth defect caused by respiratory chain inhibition; type: cell-based
Excerpt: After VHL was confirmed as an effective therapeutic target for mitochondrial disease, clinically-relevant options for triggering the hypoxia response were studied. While a VHL-inhibitor has been reported (Buckley et al., J. Am. Chem. Soc. 134:4465-68 (2012)), it is not cell permeable. However, PHD inhibitors have been extensively developed for the treatment of anemia of chronic kidney disease and ischemic injury (Rabinowitz, J. Med. Chem. 56:9369-9402 (2013)). The small molecule PHD inhibitor, FG-4592, also known as roxadustat, is currently in Phase III clinical trials for chronic kidney disease. […] FG-4592 treatment may mimic VHL-knockout, thus triggering a broader hypoxia transcriptional program. Compounds that trigger the hypoxia response including VHL-inhibitors and PHD inhibitors are therapeutics for mitochondrial dysfunction. Pre-treatment and incubation with FG-4592 almost completely rescued the growth defects caused by deficiency of multiple respiratory complexes, in multiple cell lines (FIGS. 12-13). […] Complex I, III or V inhibition stunts cell growth in most cell lines, including HT-29s, HEK 293s and […]. […] The nearly full rescue of the disease state across different cell lines and across chemical lesions highlights the general utility of this approach.

HT-29 cells = test: Anaerobic glycolysis measured as lactic acid; type: cell-based; details: basal conditions and with respiratory chain inhibition
Excerpt: as §1

HIF1α = HIF1α stabilization in cell culture; type: cell-based; details: for effect of respiratory chain inhibition on HIF1α stabilization: hypoxia, respiratory chain inhibitor alone
Excerpt: It has previously been noted that a paradox exists between mitochondrial dysfunction and cellular sensing of hypoxia (Chandel et al., Proc. Natl. Acad. Sci. U.S.A. 95:11715-20 (1998)). In cell culture, inhibition of the respiratory chain prevents HIF stabilization, even under low oxygen conditions that would otherwise trigger the hypoxia response. Proposed explanations include higher cellular oxygen tensions and […] ROS production during states of mitochondrial dysfunction. While this phenomenon has been noted in the hypoxia field, it has received less attention in the context of mitochondrial disease pathogenesis. If such a paradox extends to mitochondrial disease patients, such individuals may be unable to stabilize HIF in physiological conditions of hypoxia.

[2] = test system: hypoxia response elements (HREs) fused to GFP; test: Zebrafish hypoxia reporter strain (HRE-GFP) fluorescence; type: in vivo; details: 6 hours of exposure to 2.5 μM FG-4592
Excerpt: A zebrafish reporter strain was used to monitor activation of the hypoxia transcriptional response (Santhakumar et al., Cancer Res. 72, 4017-27 (2012)). The reporter fish has a promoter containing hypoxia response elements (HREs) fused to GFP. Hypoxia exposure or VHL knockdown causes an increase in GFP expression, allowing for in vivo monitoring of the hypoxia response. This model system could be used to monitor drug-target engagement and pharmacodynamics of a HIF activator (Chowdhury et al., ACS Chem Biol. 8:1488-96 (2013)).
Antimycin inhibits oxygen consumption of zebrafish embryos (Stackley, et al., PLOS One. 6, e25652 (2011)).

zebrafish embryos = test: Zebrafish embryo survival with Antimycin
[3] = test system: HIF-responsive genes (HK2, GLUT1, LDHA, PDK1); test: Transcription of energy metabolism genes (hypoxia transcriptional program); type: cell-based
Excerpt: The HIF transcriptional response is believed to be protective during states of hypoxia, at least in part by causing a rewiring of energy metabolism. By shifting from aerobic respiration to anaerobic glycolysis, the HIF1α response can maintain the energy supply at low oxygen tensions. FG-4592 caused normoxic stabilization of HIF proteins. […] Glucose import and phosphorylation are rate-limiting steps in the glycolytic flux of many tissues. […] HIF1α activation is also known to shunt the carbon supply away from the TCA cycle and towards the LDH reaction. Several mechanisms have been proposed for this shift away from aerobic respiration, including pyruvate dehydrogenase phosphorylation. […] Thus, cells were unable to mount the appropriate transcriptional response by endogenous mechanisms.

K562 cells = test: Mitochondrial disease model: K562 cell growth with Antimycin; type: cell-based; details: three weeks
Protocol: Mitochondrial disease was modeled in the suspension cell line, K562, and a CRISPR screen was performed to identify potential drug targets. The natural product, Antimycin, was used as a complex III inhibitor of the respiratory chain. In the presence of Antimycin, the respiratory chain is unable to oxidize high energy reducing equivalents to power ATP production. However, redox recycling by the cytoplasmic lactate dehydrogenase reaction, allows other NAD+ dependent reactions to proceed. […] Mitochondrial disease was modeled with the addition of Antimycin alone (moderate disease) or Antimycin in combination with removal of pyruvate (severe disease), using cell growth as a proxy for disease magnitude (FIG. 3). K562 cells were infected with a ˜65,000 sgRNA library, targeting ˜18,000 genes (Shalem et al., Science, 343:84-88 (2014)). After one week of genome editing, the pool of knockout cells were divided into experimental conditions of untreated, moderate disease and severe disease states (FIG. 4). Samples for an enrichment screen were collected by allowing the knockout pool to grow in selection conditions for three weeks. The relative growth between untreated and moderate disease conditions was 100-fold and between untreated and severe disease conditions was 10,000-fold (FIG. 5). […]

Compound	basal oxygen consumption (multiple cell types)	rescue of growth under ATP synthase inhibition ([1]; ATP synthase inhibition)	normal growth rates ([1]; no respiratory chain inhibition)	rescue of growth defect from Complex I, III or V inhibition ([1]; ~50 uM FG-4592 in advance and during respiratory chain dysfunction, dose-dependent)	increase of glycolysis (HT-29 cells)	HIF1α stabilization (HIF1α; hypoxic conditions)	HIF1α stabilization during respiratory chain inhibition (HIF1α; mitochondrial dysfunction, normoxia or hypoxia)	HIF1α stabilization (HIF1α; normoxic conditions)	fluorescence of reporter fish [2]	survival of zebrafish embryos (zebrafish embryos; intermediate concentrations of Antimycin)	transcription of glucose transporter 1 (GLUT1) ([3]; FG-4592 for 24 h)	transcription of hexokinase 2 (HK2) ([3]; FG-4592 for 24 h)	transcription of lactate dehydrogenase (LDHA) ([3]; FG-4592 treatment)	transcription of pyruvate dehydrogenase kinase (PDK1) ([3]; after FG-4592 treatment)	hypoxia transcriptional program ([3]; during respiratory chain inhibition)	effect of respiratory chain inhibition on HIF1α stabilization (HIF1α)	toxicity to zebrafish embryos (zebrafish embryos; prolonged treatment at low nanomolar concentrations)	relative growth between untreated and moderate disease conditions (K562 cells; moderate disease: 100 nM Antimycin with 1 mM pyruvate)	relative growth between untreated and severe disease conditions (K562 cells; severe disease: 100 nM Antimycin without pyruvate)
Cc1nc(C(=O)NCC(=O)O)c(O)c2ccc(Oc3ccccc3)cc12 [FG-4592, N-[(4-hydroxy-1-methyl-7-phenoxy-3-isoquinolinyl)carbonyl]glycine]	decreased	significantly rescued	minimally increased	nearly or completely rescued this growth defect	~60%	stabilized HIF1α beyond the endogenous hypoxia response of untreated cells	enabled HIF1α stabilization in the face of mitochondrial dysfunction	stabilized the transcription factor even during normoxia	robust increase in fluorescence	nearly doubled survival	upregulated in multiple cell types	upregulated in multiple cell types	similarly upregulated	significant upregulation	triggered the hypoxia transcriptional program, even during respiratory chain inhibition				
CC[C@H]1/C=C/C=C/C[C@@H](C)[C@H](O)[C@@](C)(O)C(=O)[C@@H](C)[C@H](O)[C@@H](C)C(=O)[C@@H](C)[C@H](O)[C@@H](C)/C=C/C(=O)O[C@@H]2[C@H](C)[C@H](CC1)O[C@]1(CC[C@H](C)[C@H](C[C@@H](C)O)O1)[C@H]2C [Oligomycin]																prevented HIF1α stabilization during hypoxia			
Antimycin																prevented HIF1α stabilization during hypoxia	resulted in death of embryos	100 fold	10,000 fold
